The source of these data is ChEMBL document CHEMBL1124633, “Antimalarials. 16. Synthesis of 2-substituted analogues of 8-[(4-amino-1-methylbutyl)amino]-6-methoxy-4-methyl-5-[3- (trifluoromethyl)phenoxy]quinoline as candidate antimalarials” (J Med Chem, 1989).

Series [1] in a line: Acute toxicity administered orally was determined in 85 female rats. Particulars: rat, in vivo, po.
A short description of series [2]: Acute toxicity administered orally was determined in 74 male rats. Particulars: rat, in vivo, po.
A short description of series [3]: Acute toxicity administered intra peritoneally was determined in 74 male rats. Particulars: rat, in vivo, ip.
A short description of series [4]: Molar primaquine index is ratio of ED50 of Compound by ED50 of primaquine in rhesus monkey. In kind it is functional.
Series [5] is described as follows: Acute toxicity administered intra peritoneally was determined in 85 female rats. Particulars: rat, in vivo, ip.
The nature of series [6]: Molar primaquine index is ratio of ED50 of Primaquine by ED50 of primaquine in rhesus monkey. In kind it is functional.
Series [7] can be described thus: Acute toxicity administered intraperitoneally was determined in female rats. In kind it is organism-based. Particulars: rat, in vivo, ip.
A short description of series [8]: Acute toxicity administered orally was determined in male rats. It is filed as organism-based. Conditions: rat, in vivo, po.
A short description of series [9]: Acute toxicity administered intraperitoneally was determined in male rats. In kind it is organism-based. Conditions: rat, in vivo, ip.
Series [10] in a line: Acute toxicity administered orally was determined in female rats. In kind it is organism-based. Conditions: rat, in vivo, po.

Usually LD50 stands for the dose expected to kill half of the subjects tested. Take `COc1cc(NC(C)CCCN)c2nccc(C)c2c1Oc1cccc(C(F)(F)F)c1` (configuration not stated): the LD50 was found to be 401 mg/kg in [1], 256 mg/kg in series [2], 86 mg/kg in [3] and 54 mg/kg in [5]. Also, in series [4], the Ratio stood at 6.8.
Regarding `COc1cc(NC(C)CCCN)c2nc(OC)cc(C)c2c1` (configuration not stated), the Ratio in [4] is given as 6.8.
For the compound `COc1cc(NC(C)CCCN)c2ncccc2c1` (configuration not stated) [PRIMAQUINE], the Ratio in series [6] is 1.
In the case of `COc1cc(C)c2c(Oc3cccc(C(F)(F)F)c3)c(OC)cc(NC(C)CCCN)c2n1` (configuration not stated) [TAFENOQUINE], the LD50 came out at 71 mg/kg in series [7], 429 mg/kg in series [8], 102 mg/kg in [9] and 416 mg/kg in [10]. Besides, the Ratio in series [4] came to 12.8.
